Measurements as given in PubChem BioAssay (NCI).
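The compound was tested at five concentrations on cells cultured in 96-well plates, with a 48-hour exposure period. GI50 = concentration required for 50% inhibition of growth. TGI denotes the concentration required for complete inhibition of growth.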

Tests used:
Experiment in all cases: NCI tumour cell line growth inhibition, 48 h
NCI-H522 lung = tested on: NCI-H522 lung
MDA-MB-435 = tested on: MDA-MB-435
TK-10 renal = tested on: TK-10 renal
K-562 leukemia = tested on: K-562 leukemia
KM12 colon = tested on: KM12 colon
T-47D breast = tested on: T-47D breast
COLO 205 colon = tested on: COLO 205 colon
UACC-62 melanoma = tested on: UACC-62 melanoma
CAKI-1 renal = tested on: CAKI-1 renal
SF-539 CNS = tested on: SF-539 CNS
UACC-257 melanoma = tested on: UACC-257 melanoma
RPMI-8226 leukemia = tested on: RPMI-8226 leukemia
IGROV1 ovarian = tested on: IGROV1 ovarian
SR leukemia = tested on: SR leukemia
SK-MEL-5 melanoma = tested on: SK-MEL-5 melanoma
CCRF-CEM leukemia = tested on: CCRF-CEM leukemia
NCI-H226 lung = tested on: NCI-H226 lung
OVCAR-3 ovarian = tested on: OVCAR-3 ovarian
MDA-MB-231 breast = tested on: MDA-MB-231 breast
PC-3 prostate = tested on: PC-3 prostate
HS 578T breast = tested on: HS 578T breast
MOLT-4 leukemia = tested on: MOLT-4 leukemia
OVCAR-8 ovarian = tested on: OVCAR-8 ovarian
SF-268 CNS = tested on: SF-268 CNS
SN12C renal = tested on: SN12C renal
SK-MEL-2 melanoma = tested on: SK-MEL-2 melanoma
NCI-H23 lung = tested on: NCI-H23 lung
A498 renal = tested on: A498 renal
RXF 393 renal = tested on: RXF 393 renal
HL-60(TB) leukemia = tested on: HL-60(TB) leukemia
A549 NSCLC = tested on: A549 NSCLC
SF-295 CNS = tested on: SF-295 CNS
UO-31 renal = tested on: UO-31 renal
EKVX NSCLC = tested on: EKVX NSCLC
OVCAR-5 ovarian = tested on: OVCAR-5 ovarian
M14 melanoma = tested on: M14 melanoma
HOP-62 NSCLC = tested on: HOP-62 NSCLC
HOP-92 NSCLC = tested on: HOP-92 NSCLC
SK-OV-3 ovarian = tested on: SK-OV-3 ovarian
DU-145 prostate = tested on: DU-145 prostate
OVCAR-4 ovarian = tested on: OVCAR-4 ovarian
SW-620 colon = tested on: SW-620 colon
SNB-19 CNS = tested on: SNB-19 CNS
786-0 renal = tested on: 786-0 renal
LOX IMVI melanoma = tested on: LOX IMVI melanoma
HT29 colon = tested on: HT29 colon
U251 CNS = tested on: U251 CNS
MCF7 breast = tested on: MCF7 breast
HCC-2998 colon = tested on: HCC-2998 colon
ACHN renal = tested on: ACHN renal
MALME-3M melanoma = tested on: MALME-3M melanoma
BT-549 breast = tested on: BT-549 breast
HCT-15 colon = tested on: HCT-15 colon
NCI/ADR-RES ovarian = tested on: NCI/ADR-RES ovarian
SNB-75 CNS = tested on: SNB-75 CNS
SK-MEL-28 melanoma = tested on: SK-MEL-28 melanoma
NCI-H460 lung = tested on: NCI-H460 lung
HCT-116 colon = tested on: HCT-116 colon

COc1ccc(-n2c(N)c(C#N)c(C#N)c2-c2cccc([N+](=O)[O-])c2)cc1
TGI (NCI-H522 lung): > 100000 nM
TGI (MDA-MB-435): > 100000 nM
TGI (TK-10 renal): > 100000 nM
TGI (K-562 leukemia): > 100000 nM
TGI (KM12 colon): > 100000 nM
TGI (T-47D breast): > 100000 nM
TGI (COLO 205 colon): > 100000 nM
TGI (UACC-62 melanoma): > 100000 nM
TGI (CAKI-1 renal): > 100000 nM
TGI (SF-539 CNS): > 100000 nM
TGI (UACC-257 melanoma): > 100000 nM
TGI (RPMI-8226 leukemia): > 100000 nM
TGI (IGROV1 ovarian): > 100000 nM
TGI (SR leukemia): > 100000 nM
TGI (SK-MEL-5 melanoma): > 100000 nM
TGI (CCRF-CEM leukemia): > 100000 nM
TGI (NCI-H226 lung): > 100000 nM
TGI (OVCAR-3 ovarian): > 100000 nM
TGI (MDA-MB-231 breast): > 100000 nM
TGI (PC-3 prostate): > 100000 nM
TGI (HS 578T breast): > 100000 nM
TGI (MOLT-4 leukemia): 44800 nM
TGI (OVCAR-8 ovarian): > 100000 nM
TGI (SF-268 CNS): > 100000 nM
TGI (SN12C renal): > 100000 nM
TGI (SK-MEL-2 melanoma): 8680 nM
TGI (NCI-H23 lung): > 100000 nM
TGI (A498 renal): > 100000 nM
TGI (RXF 393 renal): 65100 nM
TGI (HL-60(TB) leukemia): > 100000 nM
TGI (A549 NSCLC): 68700 nM
TGI (SF-295 CNS): > 100000 nM
TGI (UO-31 renal): > 100000 nM
TGI (EKVX NSCLC): > 100000 nM
TGI (OVCAR-5 ovarian): > 100000 nM
TGI (M14 melanoma): > 100000 nM
TGI (HOP-62 NSCLC): > 100000 nM
TGI (HOP-92 NSCLC): > 100000 nM
TGI (SK-OV-3 ovarian): > 100000 nM
TGI (DU-145 prostate): > 100000 nM
TGI (OVCAR-4 ovarian): > 100000 nM
TGI (SW-620 colon): > 100000 nM
TGI (SNB-19 CNS): > 100000 nM
TGI (786-0 renal): > 100000 nM
TGI (LOX IMVI melanoma): > 100000 nM
TGI (HT29 colon): > 100000 nM
TGI (U251 CNS): > 100000 nM
TGI (MCF7 breast): > 100000 nM
TGI (HCC-2998 colon): > 100000 nM
TGI (ACHN renal): > 100000 nM
TGI (MALME-3M melanoma): > 100000 nM
TGI (BT-549 breast): > 100000 nM
TGI (HCT-15 colon): > 100000 nM
TGI (NCI/ADR-RES ovarian): > 100000 nM
TGI (SNB-75 CNS): > 100000 nM

O=C(c1ccccc1)c1c(C(F)(F)F)n([O-])c2ccc(F)cc2[n+]1=O
GI50 (NCI-H522 lung): 911 nM
TGI (NCI-H522 lung): 2590 nM
GI50 (MDA-MB-435): 1300 nM
TGI (MDA-MB-435): 2660 nM
GI50 (TK-10 renal): 1630 nM
TGI (TK-10 renal): 3180 nM
GI50 (K-562 leukemia): 348 nM
TGI (K-562 leukemia): 1770 nM
GI50 (KM12 colon): 872 nM
TGI (KM12 colon): 2470 nM
GI50 (T-47D breast): 655 nM
TGI (T-47D breast): 2510 nM
GI50 (SK-MEL-28 melanoma): 1100 nM
TGI (SK-MEL-28 melanoma): 2320 nM
GI50 (COLO 205 colon): 383 nM
TGI (COLO 205 colon): 926 nM
GI50 (UACC-62 melanoma): 882 nM
TGI (UACC-62 melanoma): 2180 nM
GI50 (CAKI-1 renal): 1500 nM
TGI (CAKI-1 renal): 2850 nM
GI50 (SF-539 CNS): 1440 nM
TGI (SF-539 CNS): 2880 nM
GI50 (UACC-257 melanoma): 1540 nM
TGI (UACC-257 melanoma): 3230 nM
GI50 (RPMI-8226 leukemia): 551 nM
TGI (RPMI-8226 leukemia): 1930 nM
GI50 (IGROV1 ovarian): 517 nM
TGI (IGROV1 ovarian): 1980 nM
GI50 (SR leukemia): 95.7 nM
GI50 (SK-MEL-5 melanoma): 778 nM
TGI (SK-MEL-5 melanoma): 2180 nM
GI50 (CCRF-CEM leukemia): 349 nM
TGI (CCRF-CEM leukemia): > 100000 nM
GI50 (NCI-H226 lung): 1550 nM
TGI (NCI-H226 lung): 3020 nM
GI50 (OVCAR-3 ovarian): 501 nM
TGI (OVCAR-3 ovarian): 1570 nM
GI50 (MDA-MB-231 breast): 662 nM
TGI (MDA-MB-231 breast): 1630 nM
GI50 (PC-3 prostate): 252 nM
TGI (PC-3 prostate): 828 nM
GI50 (NCI-H460 lung): 663 nM
TGI (NCI-H460 lung): 2290 nM
GI50 (HS 578T breast): 1440 nM
TGI (HS 578T breast): 5080 nM
GI50 (MOLT-4 leukemia): 362 nM
TGI (MOLT-4 leukemia): 1480 nM
GI50 (SF-268 CNS): 945 nM
TGI (SF-268 CNS): 2400 nM
GI50 (SN12C renal): 1020 nM
TGI (SN12C renal): 2570 nM
GI50 (SK-MEL-2 melanoma): 1470 nM
TGI (SK-MEL-2 melanoma): 3350 nM
GI50 (NCI-H23 lung): 980 nM
TGI (NCI-H23 lung): 2590 nM
GI50 (A498 renal): 2380 nM
TGI (A498 renal): 6040 nM
GI50 (RXF 393 renal): 434 nM
TGI (RXF 393 renal): 1450 nM
GI50 (HL-60(TB) leukemia): 188 nM
TGI (HL-60(TB) leukemia): 869 nM
GI50 (A549 NSCLC): 749 nM
TGI (A549 NSCLC): 2970 nM
GI50 (SF-295 CNS): 1760 nM
TGI (SF-295 CNS): 3480 nM
GI50 (UO-31 renal): 1380 nM
TGI (UO-31 renal): 2740 nM
GI50 (EKVX NSCLC): 992 nM
TGI (EKVX NSCLC): 2440 nM
GI50 (OVCAR-5 ovarian): 1750 nM
TGI (OVCAR-5 ovarian): 4130 nM
GI50 (M14 melanoma): 1280 nM
TGI (M14 melanoma): 2670 nM
GI50 (HOP-62 NSCLC): 1340 nM
TGI (HOP-62 NSCLC): 2710 nM
GI50 (HOP-92 NSCLC): 211 nM
TGI (HOP-92 NSCLC): 394 nM
GI50 (SK-OV-3 ovarian): 1890 nM
TGI (SK-OV-3 ovarian): 3390 nM
GI50 (DU-145 prostate): 1300 nM
TGI (DU-145 prostate): 2570 nM
GI50 (SW-620 colon): 147 nM
TGI (SW-620 colon): 306 nM
GI50 (SNB-19 CNS): 1870 nM
TGI (SNB-19 CNS): 4010 nM
GI50 (786-0 renal): 1240 nM
TGI (786-0 renal): 2520 nM
GI50 (LOX IMVI melanoma): 167 nM
TGI (LOX IMVI melanoma): 317 nM
GI50 (HCT-116 colon): 307 nM
TGI (HCT-116 colon): 1020 nM
GI50 (HT29 colon): 502 nM
TGI (HT29 colon): 1790 nM
GI50 (U251 CNS): 1070 nM
TGI (U251 CNS): 2260 nM
GI50 (MCF7 breast): 373 nM
TGI (MCF7 breast): 1670 nM
GI50 (HCC-2998 colon): 773 nM
TGI (HCC-2998 colon): 1900 nM
GI50 (ACHN renal): 1090 nM
TGI (ACHN renal): 2340 nM
GI50 (MALME-3M melanoma): 1370 nM
TGI (MALME-3M melanoma): 3040 nM
GI50 (BT-549 breast): 252 nM
TGI (BT-549 breast): 788 nM
GI50 (HCT-15 colon): 260 nM
TGI (HCT-15 colon): 758 nM
GI50 (NCI/ADR-RES ovarian): 1780 nM
TGI (NCI/ADR-RES ovarian): 4810 nM
GI50 (SNB-75 CNS): 1360 nM
TGI (SNB-75 CNS): 2650 nM
